In US20100111838A1, “BRAIN-LOCALIZING POLYPEPTIDES COMPRISING A MULTIVALENT BINDING MOIETY AND IMPROVED METABOLIC STABILITY” (Proteus Sciences Co., Ltd, priority 2007, published 2010):
Where a SMILES comes first, the peptide text is derived from it. The star is where a group is joined. 5FAM = O=C1OC2(c3ccc(O)cc3Oc3cc(O)ccc32)c2ccc(C(=O)*)cc21

Test: In vitro metabolism test of fluorescein-labeled peptides in liver extract solution (HPLC)
Type: in vitro ADME
Conditions: mouse liver extract solution, 37° C.
Experimental: To compare the degree of improved stability observed in [C]K004K, an experiment system that uses a fluorescent pigment as a tracer instead of an isotope labeling for in vitro evaluation using a mouse liver homogenate was produced.
Add two parts of Hanks' solution to one part of mouse liver, and homogenize ↓ Centrifuge and collect supernatant ↓ Add five parts of Hanks' solution (liver extract solution) ↓ Add 5 μL of peptide to 245 μL of liver extract solution ↓
↓ Take 50 μL of sample 0, 5, 30, 60, and 120 minutes after incubation ↓ Add 200 μL, of 70% ethanol (pre-cooled at −30° C.) and then vortex ↓ Add 500 μL of chloroform (pre-cooled at −30° C.) and then vigorously vortex ↓ Centrifuge and collect supernatant ↓ Add an equivalent amount of DMF and then vortex ↓ Centrifuge and collect supernatant ↓ HPLC analysis using Co-sense
[C](Flu)-C004C: A peptide cyclized by adding C to both ends of the 004 sequence and forming a disulfide bond between them was labeled with fluorescein at its N-terminus. [C](Flu)-K004C: A peptide cyclized by adding K to the N terminus and C to the C terminus of the 004 sequence and forming a peptide bond between the N- and C-termini was labeled with fluorescein at its N terminus. [C](Flu)-K004K: A peptide cyclized by adding K to both ends of the 004 sequence and forming a peptide bond between the N- and C-termini was labeled with fluorescein at its N terminus. […]

CC(C)C[C@@H]1NC(=O)[C@H](Cc2c[nH]cn2)NC(=O)[C@H](CCCNC(=N)N)NC(=O)[C@H](C(C)C)NC(=O)[C@H](C(C)C)NC(=O)[C@H](CCCCNC(=O)c2ccc3c(c2)C(=O)OC32c3ccc(O)cc3Oc3cc(O)ccc32)NC(=O)[C@H](CCCCN)NC(=O)[C@H](CCC(N)=O)NC(=O)[C@H](CCC(N)=O)NC1=O [[C](Flu)-K004K] (cyclo(K(5FAM)VVRHLQQK))
resistance to degradation in liver extract solution (comparison): strongest resistance to degradation
